From patent EP2561858B1, “A composition for activating hair follicle stem cells to stimulate hair growth” (LABO Cosprophar AG, priority 2011, dated 2013)

Tests used:
[1] = biological target: T1, 5-alpha reductase activity I (Homo sapiens, UniProt P18405); assay: 5-alpha reductase inhibition in skin fibroblasts (marked Testosterone to DHT, TLC), type I; type: cell-based; conditions: 100µM, 1 hour at 37°C preincubation, 3 hr with marked Testosterone
T1 construct: skin fibroblasts, cells that contain different types of enzymes involved in the biosynthesis of steroids, were used; endogenous in cells; host or cells: skin fibroblasts
T1 sequence (P18405 1-259): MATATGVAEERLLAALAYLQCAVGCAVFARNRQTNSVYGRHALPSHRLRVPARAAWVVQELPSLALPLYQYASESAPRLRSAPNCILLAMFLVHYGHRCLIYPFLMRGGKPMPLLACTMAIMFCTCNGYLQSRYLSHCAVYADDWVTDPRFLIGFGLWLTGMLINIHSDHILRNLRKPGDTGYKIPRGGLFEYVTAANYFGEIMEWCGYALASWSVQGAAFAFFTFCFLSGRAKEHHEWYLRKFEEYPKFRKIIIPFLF
Protocol: (§1) In the experiment, skin fibroblasts, cells that contain different types of enzymes involved in the biosynthesis of steroids, were used. These cells represent a good system for the evaluation of the kinetic parameters of enzyme inhibitors such as 5-alpha reductase, delegated to steroid metabolism.
(§2) Fibroblasts were or were not incubated with 100µM of active Biochanin-A for 1 hour at 37°C before the addition of a known quantity of marked Testosterone, at the concentration of 1.5 micromoles. After 3 hr we proceeded with the extraction of the radioactive steroids. The amount of marked Testosterone and DHT are determined by TLC (Thin Layer Chromatography) to quantify 5-alpha reductase activity.

[2] = biological target: T2, 5-alpha reductase activity II (Homo sapiens, UniProt P31213); assay: 5-alpha reductase inhibition in skin fibroblasts (marked Testosterone to DHT, TLC), type II; type: cell-based; conditions: 100µM, 1 hour at 37°C preincubation, 3 hr with marked Testosterone
T2 construct: skin fibroblasts, cells that contain different types of enzymes involved in the biosynthesis of steroids, were used; endogenous in cells; host or cells: skin fibroblasts
T2 sequence (P31213 1-254): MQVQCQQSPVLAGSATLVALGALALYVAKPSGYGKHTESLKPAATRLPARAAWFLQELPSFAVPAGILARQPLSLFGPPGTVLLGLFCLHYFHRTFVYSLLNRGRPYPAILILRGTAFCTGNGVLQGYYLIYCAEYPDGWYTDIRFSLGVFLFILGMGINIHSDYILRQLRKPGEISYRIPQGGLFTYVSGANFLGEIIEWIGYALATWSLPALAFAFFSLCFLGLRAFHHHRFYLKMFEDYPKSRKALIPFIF
Protocol: as §1, §2

5-alpha reductase activity I compared to the negative control [1]: -64%
5-alpha reductase activity II compared to the negative control [2]: -93%
Structure (SMILES): COc1ccc(-c2coc3cc(O)cc(O)c3c2=O)cc1 [Biochanin-A]
